From the NIST ThermoML archive (doi:10.1016/j.jct.2017.03.006)

Assay: xn = mol fraction of the nth substance listed
Settings: Liquid; for viscosity: Concentric cylinders viscometry; for mass density: Vibrating tube method

Cc1ccc(C)c(C)c1 [1,2,4-trimethylbenzene] + CCCCO
Settings | mass density [kg/m3] | viscosity [mPa·s]
313.15 K, 100 kPa, x2 = 0 | 859 | –
313.15 K, 100 kPa, x2 = 0.1005 | 853.7 | –
313.15 K, 100 kPa, x2 = 0.2261 | 847.1 | –
313.15 K, 100 kPa, x2 = 0.2999 | 843.2 | –
313.15 K, 100 kPa, x2 = 0.3966 | 837.7 | –
313.15 K, 100 kPa, x2 = 0.5289 | 829.9 | –
313.15 K, 100 kPa, x2 = 0.53 | – | 0.882
313.15 K, 100 kPa, x2 = 0.6367 | 822.9 | –
313.15 K, 100 kPa, x2 = 0.637 | – | 0.994
313.15 K, 100 kPa, x2 = 0.7249 | 816.8 | –
313.15 K, 100 kPa, x2 = 0.7975 | – | 1.254
313.15 K, 100 kPa, x2 = 0.7977 | 811.4 | –
313.15 K, 100 kPa, x2 = 0.9131 | 802 | 1.516
313.15 K, 1000 kPa, x2 = 0 | 859.7 | –
313.15 K, 1000 kPa, x2 = 0.1005 | 854.4 | –
313.15 K, 1000 kPa, x2 = 0.2261 | 847.8 | –
313.15 K, 1000 kPa, x2 = 0.2999 | 843.9 | –
313.15 K, 1000 kPa, x2 = 0.3966 | 838.4 | –
313.15 K, 1000 kPa, x2 = 0.5289 | 830.6 | –
313.15 K, 1000 kPa, x2 = 0.6367 | 823.6 | –
313.15 K, 1000 kPa, x2 = 0.7249 | 817.5 | –
313.15 K, 1000 kPa, x2 = 0.7977 | 812 | –
313.15 K, 1000 kPa, x2 = 0.9131 | 802.8 | –
313.15 K, 5000 kPa, x2 = 0 | 862.6 | –
313.15 K, 5000 kPa, x2 = 0.1005 | 857.3 | –
313.15 K, 5000 kPa, x2 = 0.2261 | 850.7 | –
313.15 K, 5000 kPa, x2 = 0.2999 | 846.9 | –
313.15 K, 5000 kPa, x2 = 0.3966 | 841.5 | –
313.15 K, 5000 kPa, x2 = 0.5289 | 833.7 | –
313.15 K, 5000 kPa, x2 = 0.6367 | 826.7 | –
313.15 K, 5000 kPa, x2 = 0.7249 | 820.6 | –
313.15 K, 5000 kPa, x2 = 0.7977 | 815.2 | –
313.15 K, 5000 kPa, x2 = 0.9131 | 805.9 | –
313.15 K, 10000 kPa, x2 = 0 | 866 | –
313.15 K, 10000 kPa, x2 = 0.1005 | 860.8 | –
313.15 K, 10000 kPa, x2 = 0.2261 | 854.3 | –
313.15 K, 10000 kPa, x2 = 0.2999 | 850.5 | –
313.15 K, 10000 kPa, x2 = 0.3966 | 845.1 | –
313.15 K, 10000 kPa, x2 = 0.5289 | 837.3 | –
313.15 K, 10000 kPa, x2 = 0.6367 | 830.4 | –
313.15 K, 10000 kPa, x2 = 0.7249 | 824.3 | –
313.15 K, 10000 kPa, x2 = 0.7977 | 818.9 | –
313.15 K, 10000 kPa, x2 = 0.9131 | 809.7 | –
313.15 K, 20000 kPa, x2 = 0 | 872.6 | –
313.15 K, 20000 kPa, x2 = 0.1005 | 867.5 | –
313.15 K, 20000 kPa, x2 = 0.2261 | 861 | –
313.15 K, 20000 kPa, x2 = 0.2999 | 857.2 | –
313.15 K, 20000 kPa, x2 = 0.3966 | 851.9 | –
313.15 K, 20000 kPa, x2 = 0.5289 | 844.1 | –
313.15 K, 20000 kPa, x2 = 0.6367 | 837.3 | –
313.15 K, 20000 kPa, x2 = 0.7249 | 831.2 | –
313.15 K, 20000 kPa, x2 = 0.7977 | 825.8 | –
313.15 K, 20000 kPa, x2 = 0.9131 | 816.7 | –
313.15 K, 30000 kPa, x2 = 0 | 878.7 | –
313.15 K, 30000 kPa, x2 = 0.1005 | 873.8 | –
313.15 K, 30000 kPa, x2 = 0.2261 | 867.4 | –
313.15 K, 30000 kPa, x2 = 0.2999 | 863.6 | –
313.15 K, 30000 kPa, x2 = 0.3966 | 858.3 | –
313.15 K, 30000 kPa, x2 = 0.5289 | 850.6 | –
313.15 K, 30000 kPa, x2 = 0.6367 | 843.7 | –
313.15 K, 30000 kPa, x2 = 0.7249 | 837.7 | –
313.15 K, 30000 kPa, x2 = 0.7977 | 832.4 | –
313.15 K, 30000 kPa, x2 = 0.9131 | 823.2 | –
313.15 K, 40000 kPa, x2 = 0 | 884.5 | –
313.15 K, 40000 kPa, x2 = 0.1005 | 879.6 | –
313.15 K, 40000 kPa, x2 = 0.2261 | 873.2 | –
313.15 K, 40000 kPa, x2 = 0.2999 | 869.5 | –
313.15 K, 40000 kPa, x2 = 0.3966 | 864.1 | –
313.15 K, 40000 kPa, x2 = 0.5289 | 856.5 | –
313.15 K, 40000 kPa, x2 = 0.6367 | 849.7 | –
313.15 K, 40000 kPa, x2 = 0.7249 | 843.7 | –
313.15 K, 40000 kPa, x2 = 0.7977 | 838.4 | –
313.15 K, 40000 kPa, x2 = 0.9131 | 829.4 | –
313.15 K, 50000 kPa, x2 = 0 | 889.9 | –
313.15 K, 50000 kPa, x2 = 0.1005 | 885 | –
313.15 K, 50000 kPa, x2 = 0.2261 | 878.7 | –
313.15 K, 50000 kPa, x2 = 0.2999 | 875 | –
313.15 K, 50000 kPa, x2 = 0.3966 | 869.7 | –
313.15 K, 50000 kPa, x2 = 0.5289 | 862.1 | –
313.15 K, 50000 kPa, x2 = 0.6367 | 855.3 | –
313.15 K, 50000 kPa, x2 = 0.7249 | 849.4 | –
313.15 K, 50000 kPa, x2 = 0.7977 | 844 | –
313.15 K, 50000 kPa, x2 = 0.9131 | 835 | –
313.15 K, 60000 kPa, x2 = 0 | 895 | –
313.15 K, 60000 kPa, x2 = 0.1005 | 890.2 | –
313.15 K, 60000 kPa, x2 = 0.2261 | 883.9 | –
313.15 K, 60000 kPa, x2 = 0.2999 | 880.2 | –
313.15 K, 60000 kPa, x2 = 0.3966 | 875 | –
313.15 K, 60000 kPa, x2 = 0.5289 | 867.4 | –
313.15 K, 60000 kPa, x2 = 0.6367 | 860.6 | –
313.15 K, 60000 kPa, x2 = 0.7249 | 854.7 | –
313.15 K, 60000 kPa, x2 = 0.7977 | 849.3 | –
313.15 K, 60000 kPa, x2 = 0.9131 | 840.3 | –
313.15 K, 70000 kPa, x2 = 0 | 899.9 | –
313.15 K, 70000 kPa, x2 = 0.1005 | 895.2 | –
313.15 K, 70000 kPa, x2 = 0.2261 | 888.9 | –
313.15 K, 70000 kPa, x2 = 0.2999 | 885.2 | –
313.15 K, 70000 kPa, x2 = 0.3966 | 880 | –
313.15 K, 70000 kPa, x2 = 0.5289 | 872.5 | –
313.15 K, 70000 kPa, x2 = 0.6367 | 865.6 | –
313.15 K, 70000 kPa, x2 = 0.7249 | 859.8 | –
313.15 K, 70000 kPa, x2 = 0.7977 | 854.4 | –
313.15 K, 70000 kPa, x2 = 0.9131 | 845.4 | –
313.15 K, 80000 kPa, x2 = 0 | 904.6 | –
313.15 K, 80000 kPa, x2 = 0.1005 | 899.9 | –
313.15 K, 80000 kPa, x2 = 0.2261 | 893.7 | –
313.15 K, 80000 kPa, x2 = 0.2999 | 890.1 | –
313.15 K, 80000 kPa, x2 = 0.3966 | 884.8 | –
313.15 K, 80000 kPa, x2 = 0.5289 | 877.3 | –
313.15 K, 80000 kPa, x2 = 0.6367 | 870.5 | –
313.15 K, 80000 kPa, x2 = 0.7249 | 864.6 | –
313.15 K, 80000 kPa, x2 = 0.7977 | 859.3 | –
313.15 K, 80000 kPa, x2 = 0.9131 | 850.3 | –
313.15 K, 90000 kPa, x2 = 0 | 909 | –
313.15 K, 90000 kPa, x2 = 0.1005 | 904.4 | –
313.15 K, 90000 kPa, x2 = 0.2261 | 898.1 | –
313.15 K, 90000 kPa, x2 = 0.2999 | 894.5 | –
313.15 K, 90000 kPa, x2 = 0.3966 | 889.2 | –
313.15 K, 90000 kPa, x2 = 0.5289 | 881.9 | –
313.15 K, 90000 kPa, x2 = 0.6367 | 875.1 | –
313.15 K, 90000 kPa, x2 = 0.7249 | 869.1 | –
313.15 K, 90000 kPa, x2 = 0.7977 | 863.8 | –
313.15 K, 90000 kPa, x2 = 0.9131 | 854.8 | –
313.15 K, 100000 kPa, x2 = 0 | 913.3 | –
313.15 K, 100000 kPa, x2 = 0.1005 | 908.7 | –
313.15 K, 100000 kPa, x2 = 0.2261 | 902.5 | –
313.15 K, 100000 kPa, x2 = 0.2999 | 898.8 | –
313.15 K, 100000 kPa, x2 = 0.3966 | 893.6 | –
313.15 K, 100000 kPa, x2 = 0.5289 | 886.2 | –
313.15 K, 100000 kPa, x2 = 0.6367 | 879.4 | –
313.15 K, 100000 kPa, x2 = 0.7249 | 873.5 | –
313.15 K, 100000 kPa, x2 = 0.7977 | 868.2 | –
313.15 K, 100000 kPa, x2 = 0.9131 | 859.2 | –
313.15 K, 120000 kPa, x2 = 0 | 921.4 | –
313.15 K, 120000 kPa, x2 = 0.1005 | 916.9 | –
313.15 K, 120000 kPa, x2 = 0.2261 | 910.7 | –
313.15 K, 120000 kPa, x2 = 0.2999 | 907.1 | –
313.15 K, 120000 kPa, x2 = 0.3966 | 901.9 | –
313.15 K, 120000 kPa, x2 = 0.5289 | 894.5 | –
313.15 K, 120000 kPa, x2 = 0.6367 | 887.7 | –
313.15 K, 120000 kPa, x2 = 0.7249 | 881.8 | –
313.15 K, 120000 kPa, x2 = 0.7977 | 876.5 | –
313.15 K, 120000 kPa, x2 = 0.9131 | 867.5 | –
313.15 K, 140000 kPa, x2 = 0 | 928.9 | –
313.15 K, 140000 kPa, x2 = 0.1005 | 924.3 | –
313.15 K, 140000 kPa, x2 = 0.2261 | 918.7 | –
313.15 K, 140000 kPa, x2 = 0.2999 | 914.5 | –
313.15 K, 140000 kPa, x2 = 0.3966 | 909.6 | –
313.15 K, 140000 kPa, x2 = 0.5289 | 902.2 | –
313.15 K, 140000 kPa, x2 = 0.6367 | 895.5 | –
313.15 K, 140000 kPa, x2 = 0.7249 | 889.6 | –
313.15 K, 140000 kPa, x2 = 0.7977 | 884.4 | –
313.15 K, 140000 kPa, x2 = 0.9131 | 875.3 | –
323.15 K, 100 kPa, x2 = 0 | – | 0.62
323.15 K, 100 kPa, x2 = 0.1002 | – | 0.615
323.15 K, 100 kPa, x2 = 0.2327 | – | 0.631
323.15 K, 100 kPa, x2 = 0.3 | – | 0.653
323.15 K, 100 kPa, x2 = 0.3969 | – | 0.683
323.15 K, 100 kPa, x2 = 0.53 | – | 0.754
323.15 K, 100 kPa, x2 = 0.637 | – | 0.835
